Assay results: PMC7601839, “Anti-Acne Effects of Cembrene Diterpenoids from the Cultured Soft Coral Sinularia flexibilis” (Marine Drugs, 2020)

What was measured:
[1] = tested on: iNOS; test: Western blot of iNOS in HKC-treated RAW 264.7 cells; type: cell-based
Procedure: (§1) Whole-cell lysates were prepared using radioimmunoprecipitation (RIPA) assay. Proteins in lysate samples (30 μg) were analyzed using 10% sodium dodecylsulfate-polyacrylamide gel electrophoresis (SDS-PAGE). Gels were transferred to nitrocellulose membranes and probed with primary iNOS (clone N-20), COX-2 (clone C-20), p-ERK (clone N-20), p-JNK (clone N-20), and glyceraldehyde-3-phosphate dehydrogenase (GAPDH; clone 6C5) antibodies (Santa Cruz Biotechnology, Santa Cruz, CA, USA). Membranes were visualized with a BCIP/NBT kit (Gibco BRL, Grand Island, NY, USA). Protein expression was quantified using the Azure Biosystem C300 Imaging System. GAPDH expression was used as an internal control to compare with protein expressions of iNOS, COX-2, p-ERK, and p-JNK [24].
(§2) C. acnes (4 × 10^8 cfu/mL) was heated at 80 °C for 30 min and killed. Heat-killed C. acnes (HKC) was freeze-dried as a powder and maintained at 4 °C until use. RAW 264.7 and HaCaT cells were cultured in DMEM with 10% FBS, 1% penicillin-streptomycin, and 1% L-glutamine at 37 °C in a 5% CO2 atmosphere. RAW 264.7 cells (4 × 10^5 cells/mL) and HaCaT cells (10^5 cells/mL) were seeded in six-well plates and co-treated with HKC (300 μg/mL) and test samples [24]. After 24 h, NO production was determined by adding the Griess reagent in the cell culture medium, and the absorption was measured in an ELISA reader at 530 nm. The sample culture medium was removed, and RAW 264.7 cells and HaCaT cells were washed with PBS.

[2] = tested on: p-ERK; test: Western blot of p-ERK in HKC-treated RAW 264.7 cells; type: cell-based; conditions: SC-2 2.5–20 μM, SC-7 5–40 μM, SC-9 2.5–20 μM
Procedure: as §1, §2

[3] = tested on: iNOS; set-up: method as in PMID 23774887; conditions: LPS-stimulated RAW264.7 macrophage cells; cited from earlier work
[4] = tested on: p-ERK; test: Western blot of p-ERK in HKC-treated HaCaT cells; type: cell-based, human; conditions: 30 min after HKC induction
Procedure: as §1, §2

[5] = Survival rate of RAW 264.7 cells by MTT assay; type: cell-based; conditions: mouse, LPS-induced RAW 264.7 cells, read-out: Cell Viability (%)
Procedure: (§3) Anti-inflammatory effects were analyzed in RAW 264.7 cells, which were cultured in DMEM with 10% FBS, 1% L-glutamine, and 1% penicillin-streptomycin, and maintained at 37 °C in a 5% CO2 atmosphere. RAW 264.7 cells (4.0 × 10^5 cells/mL) were seeded in 96-well plates and co-treated with LPS (500 ng/mL) and test samples. After 24 h, NO production was determined by Griess reagent, and the absorption was detected at 530 nm. The percentage inhibition of NO production was presented as the anti-inflammatory activity. PGE2 concentrations in cell culture media were determined with a PGE2 enzyme-linked immunosorbent assay (ELISA) kit (Enzo Life Sciences, Farmingdale, NY, USA). The survival rate of RAW 264.7 cells was detected using an MTT assay.

[6] = tested on: p-JNK; test: Western blot of p-JNK in LPS-induced RAW 264.7 cells; type: cell-based; conditions: 30 min, SC-2 2.5–20 μM, SC-7 5–40 μM, SC-9 2.5–20 μM
Procedure: as §1

[7] = tested on: LPS-induced RAW 264.7 cells (NO production); test: NO production (Griess) in LPS-induced RAW 264.7 cells; type: cell-based; conditions: for inhibition at 20 µM / IC50: Mus musculus, RAW264.7, 24 h; for IC50: read-out: IC50 Value of NO Inhibition
Procedure: as §3

[8] = tested on: HKC-induced RAW 264.7 cells (NO production); test: NO production (Griess) in heat-killed C. acnes (HKC)-induced RAW 264.7 cells; type: cell-based; conditions: Mus musculus, RAW264.7, 24 h, read-out: IC50 Value of NO Inhibition
Procedure: as §2

[9] = tested on: LPS-induced RAW 264.7 cells (PGE2 production); test: PGE2 production (ELISA) in LPS-induced RAW 264.7 cells; type: cell-based; conditions: for inhibitory effect on prostaglandin E2 (PGE2) production: 24 h
Procedure: as §3

[10] = tested on: COX-2; test: Western blot of COX-2 in HKC-treated RAW 264.7 cells; type: cell-based
Procedure: as §1, §2

[11] = tested on: p-ERK; test: Western blot of p-ERK in LPS-induced RAW 264.7 cells; type: cell-based; conditions: 30 min, SC-2 2.5–20 μM, SC-7 5–40 μM, SC-9 2.5–20 μM
Procedure: as §1

[12] = tested on: Dihydrotestosterone-induced HaCaT cells; test: Anti-proliferative activity in dihydrotestosterone-treated HaCaT cells (MTT); type: cell-based, human; conditions: for keratinocyte over-proliferation by DHT: HaCaT keratinocytes
Procedure: (§4) HaCaT cells (10^5 cells/mL) were seeded in 96-well plates and co-treated with testosterone (5 μg/mL) or DHT (5 μg/mL) and test samples with no cytotoxicity for 48 h. Cell proliferative activity was detected by an MTT assay.

[13] = tested on: Testosterone-induced HaCaT cells; test: Anti-proliferative activity in testosterone-treated HaCaT cells (MTT); type: cell-based, human; conditions: for testosterone-induced HaCaT cell proliferation: SC-2 1.25–5, SC-7 2.5–10, SC-9 0.08–0.32 μM, 48 h
Procedure: as §4

[14] = tested on: p-JNK; test: Western blot of p-JNK in HKC-treated RAW 264.7 cells; type: cell-based; conditions: SC-2 2.5–20 μM, SC-7 5–40 μM, SC-9 2.5–20 μM
Procedure: as §1, §2

[15] = tested on: HaCaT cells; test: Cytotoxicity analysis in HaCaT cells; type: cell-based, human; conditions: for growth inhibition of HaCaT cells: at high doses
[16] = tested on: iNOS; test: Western blot of iNOS in LPS-induced RAW 264.7 cells; type: cell-based; conditions: 24 h
Procedure: as §1

[17] = tested on: COX-2; test: Western blot of COX-2 in LPS-induced RAW 264.7 cells; type: cell-based; conditions: 6 h and 24 h
Procedure: as §1

[18] = tested on: COX-2; set-up: method as in PMID 23774887; conditions: LPS-stimulated RAW264.7 macrophage cells; cited from earlier work
[19] = tested on: HaCaT cells; test: cells; conditions: Homo sapiens, read-out: HaCaT cell viability
Procedure: (§5) HaCaT cells (10^5 cells/mL) were seeded in 96-well plates and co-treated with testosterone (5 μg/mL) or DHT (5 μg/mL) and test samples with no cytotoxicity for 48 h [2, 25, 26]. Cell proliferative activity was detected by an MTT assay.

[20] = tested on: HaCaT cells; conditions: 20 nM, 48 h
Procedure: as §5

[21] = Homo sapiens, dihydrotestosterone-induced HaCaT cells
[22] = Homo sapiens, testosterone-induced HaCaT cells

Compound: C=C1C(=O)OC2(C)CCC1CC1OC1(C)CCC(OC(C)=O)C1(C)CCC2O1 (stereo not drawn) [SC-7, 3,4:8,11-bisepoxy-7-acetoxycembra-15(17)-en-1,12-olide]
- iNOS expression [1]: significant inhibitory effects
- p-ERK expression [2]: good inhibitory effects
- accumulation of the proinflammatory iNOS protein [3]: significantly inhibit
- p-ERK protein expression [4]: significant inhibitory effects
- viability at 24 h, 20 µM [5]: 96.1 ± 8.4%
- p-JNK protein expression [6]: dose-dependent inhibitory effects
- inhibition at 20 µM [7]: 50.2 ± 5.5%
- IC50 [7]: 15.2 ± 0.25 µM
- IC50 [8]: 7.42 ± 0.4 µM
- inhibitory effect on prostaglandin E2 (PGE2) production [9]: no inhibitory effect
- COX-2 expression [10]: no changes
- p-ERK protein expression [11]: dose-dependent inhibitory effects
- keratinocyte over-proliferation by DHT [12]: inhibited keratinocyte over-proliferation
- inhibition at 2.5 µM [12, 21]: 9.5 ± 3.2%
- inhibition at 5 µM [12, 21]: 13.1 ± 2.9%
- inhibition at 10 µM ([12]; Homo sapiens, dihydrotestosterone-induced HaCaT cells, 10 μM): 13.8 ± 0.8%
- inhibition at 2.5 µM [13, 22]: 13.2 ± 0.7%
- inhibition at 5 µM [13, 22]: 14 ± 2%
- inhibition at 10 µM ([13]; Homo sapiens, testosterone-induced HaCaT cells, 10 μM): 20.8 ± 0.9%
- testosterone-induced HaCaT cell proliferation [13]: significantly decreased
- p-JNK expression [14]: good inhibitory effects
- concentrations with no cytotoxicity to HaCaT cells [15]: 5000 to 40000 nM
- iNOS protein expression [16]: decreased iNOS protein expression
- COX-2 protein expression [17]: did not present identical COX-2 inhibitory effects

Compound: C=C(C(=O)O)[C@@H]1CC[C@@](C)(O)[C@@H]2CC[C@@](C)(O2)[C@@H](OC(C)=O)CC[C@]2(C)O[C@H]2C1 [SC-6, dendronpholide F]
- viability at 24 h, 20 µM [5]: 96.1 ± 0.4%
- inhibitory effects on NO expression [7]: no inhibitory effects
- inhibition at 20 µM [7]: -15.1%

Compound: flexibilisolides C
- accumulation of the proinflammatory iNOS protein [3]: significantly inhibit
- accumulation of COX-2 protein [18]: could reduce

Compound: flexibilisolides D
- accumulation of the proinflammatory iNOS protein [3]: significantly inhibit

Compound: C=C1C(=O)O[C@]2(C)CC[C@@H]1C[C@@H]1O[C@@]1(C)CC/C=C(\C)CC[C@H]2O [11-epi-sinulariolide]
- accumulation of the proinflammatory iNOS protein [3]: significantly inhibit
- accumulation of COX-2 protein [18]: could reduce

Compound: C/C1=C\CC[C@](C)(O)[C@H]2C[C@@H](CC[C@]3(C)O[C@H]3CC1)[C@H](C)C(=O)O2 [SC-10, dihydrosinularin]
- viability at 24 h, 20 µM [5]: 117 ± 1.9%
- inhibitory effects on NO expression [7]: no inhibitory effects
- inhibition at 20 µM [7]: 28.2 ± 4.6%

Compound: C=C1C(=O)O[C@@H]2C[C@H]1CC[C@]1(C)O[C@H]1CC/C(C)=C/CC[C@]2(C)O [SC-9, sinularin]
- iNOS expression [1]: significant inhibitory effects
- p-ERK expression [2]: good inhibitory effects
- p-ERK protein expression [4]: significant inhibitory effects
- viability at 24 h, 20 µM [5]: 98.9%
- p-JNK protein expression [6]: dose-dependent inhibitory effects
- inhibition at 20 µM [7]: 102 ± 1.4%
- IC50 [7]: 3.85 ± 0.25 µM
- IC50 [8]: 2.81 ± 0.2 µM
- inhibitory effect on prostaglandin E2 (PGE2) production [9]: no inhibitory effect
- IC50 ([9]; Mus musculus, RAW264.7, 6 h, read-out: IC50 Value of PGE2 Inhibition): 6.22 µM
- COX-2 expression [10]: no changes
- p-ERK protein expression [11]: dose-dependent inhibitory effects
- keratinocyte over-proliferation by DHT [12]: inhibited keratinocyte over-proliferation
- inhibition at 0.08 µM ([12]; Homo sapiens, dihydrotestosterone-induced HaCaT cells, 0.08 μM): 8.5 ± 0.7%
- inhibition at 0.16 µM ([12]; Homo sapiens, dihydrotestosterone-induced HaCaT cells, 0.16 μM): 16 ± 0.7%
- inhibition at 0.32 µM ([12]; Homo sapiens, dihydrotestosterone-induced HaCaT cells, 0.32 μM): 18 ± 3.1%
- inhibition at 0.08 µM ([13]; Homo sapiens, testosterone-induced HaCaT cells, 0.08 μM): 6.5 ± 0.5%
- inhibition at 0.16 µM ([13]; Homo sapiens, testosterone-induced HaCaT cells, 0.16 μM): 11.5 ± 1.3%
- inhibition at 0.32 µM ([13]; Homo sapiens, testosterone-induced HaCaT cells, 0.32 μM): 19.1 ± 1.3%
- testosterone-induced HaCaT cell proliferation [13]: significantly decreased
- p-JNK expression [14]: good inhibitory effects
- concentrations with no cytotoxicity to HaCaT cells [15]: 312 to 2500 nM
- growth inhibition of HaCaT cells [15]: caused growth inhibition
- iNOS protein expression [16]: decreased iNOS protein expression
- COX-2 protein expression [17]: more significant COX-2 inhibitory effects at 6 h than that at 24 h

Compound: C[C@]12CCC(=O)C[C@@H]1CC[C@@H]1[C@@H]2CC[C@]2(C)[C@@H](O)CC[C@@H]12 [DHT, dihydrotestosterone]
- viability at 0.1 µg/mL [19]: 97.6%
- viability at 0.5 µg/mL [19]: 103%
- viability at 1 µg/mL [19]: 105%
- viability at 5 µg/mL [19]: 118%
- HaCaT cell proliferation [20]: significantly induced

Compound: C[C@]12CC[C@H]3[C@@H](CCC4=CC(=O)CC[C@@]43C)[C@@H]1CC[C@@H]2O [testosterone]
- HaCaT cell proliferation [20]: significantly induced

Compound: C=C1C(=O)O[C@]2(C)CC[C@@H]1C[C@@H]1O[C@@]1(C)C/C=C/[C@@](C)(OO)CCC2=O [flexilarin D]
- accumulation of the proinflammatory iNOS protein [3]: significantly inhibit

Compound: C=C1C(=O)OC2(C)CCC1CC1OC1(C)CCC=C(C)CCC2=O (stereo not drawn) [SC-2, 11-dehydrosinulariolide]
- iNOS expression [1]: significant inhibitory effects
- p-ERK expression [2]: good inhibitory effects
- accumulation of the proinflammatory iNOS protein [3]: significantly inhibit
- p-ERK protein expression [4]: significant inhibitory effects
- viability at 24 h, 20 µM [5]: 102 ± 9.4%
- p-JNK protein expression [6]: dose-dependent inhibitory effects
- inhibition at 20 µM [7]: 92.4 ± 3%
- IC50 [7]: 5.66 ± 0.19 µM
- IC50 [8]: 5.81 ± 0.4 µM
- inhibitory effect on prostaglandin E2 (PGE2) production [9]: no inhibitory effect
- COX-2 expression [10]: no changes
- p-ERK protein expression [11]: dose-dependent inhibitory effects
- keratinocyte over-proliferation by DHT [12]: inhibited keratinocyte over-proliferation
- inhibition at 1.25 µM ([12]; Homo sapiens, dihydrotestosterone-induced HaCaT cells, 1.25 μM): 10.6 ± 3%
- inhibition at 2.5 µM [12, 21]: 12.3 ± 3.1%
- inhibition at 5 µM [12, 21]: 16.8 ± 4%
- inhibition at 1.25 µM ([13]; Homo sapiens, testosterone-induced HaCaT cells, 1.25 μM): 11.9 ± 5.5%
- inhibition at 2.5 µM [13, 22]: 13.5 ± 1.1%
- inhibition at 5 µM [13, 22]: 17.4 ± 2.8%
- testosterone-induced HaCaT cell proliferation [13]: significantly decreased
- p-JNK expression [14]: good inhibitory effects
- concentrations with no cytotoxicity to HaCaT cells [15]: 1250 to 10000 nM
- growth inhibition of HaCaT cells [15]: caused growth inhibition
- iNOS protein expression [16]: decreased iNOS protein expression
- COX-2 protein expression [17]: did not present identical COX-2 inhibitory effects
- accumulation of COX-2 protein [18]: could reduce
